Results: ChEMBL document CHEMBL3611972, “Leishmanicidal, antiproteolytic, and mutagenic evaluation of alkyltriazoles and alkylphosphocholines” (Eur J Med Chem, 2015)

How the values were obtained:
Salmonella typhimurium [1] = test: Mutagenicity in Salmonella typhimurium TA98 assessed as mutagenicity index at 905.66 uM/plate incubated for 90 mins at 37 degC in absence of liver S9 fractions by Ames test relative to control; assay type: toxicity, organism-based; conditions: salmonella enterica subsp. enterica serovar typhimurium, 1.5 h
Salmonella typhimurium [2] = test: Mutagenicity in Salmonella typhimurium TA98 assessed as mutagenicity index at 1185.19 uM/plate incubated for 90 mins at 37 degC in absence of liver S9 fractions by Ames test relative to control; assay type: toxicity, organism-based; conditions: salmonella enterica subsp. enterica serovar typhimurium, 1.5 h
Salmonella typhimurium [3] = test: Mutagenicity in Salmonella typhimurium TA98 assessed as mutagenicity index at 616.38 uM/plate incubated for 90 mins at 37 degC in presence of liver S9 fractions by Ames test relative to control; assay type: toxicity, organism-based; conditions: salmonella enterica subsp. enterica serovar typhimurium, s9, 1.5 h
Salmonella typhimurium [4] = test: Mutagenicity in Salmonella typhimurium TA98 assessed as mutagenicity index at 1185.19 uM/plate incubated for 90 mins at 37 degC in presence of liver S9 fractions by Ames test relative to control; assay type: toxicity, organism-based; conditions: salmonella enterica subsp. enterica serovar typhimurium, s9, 1.5 h
Salmonella typhimurium [5] = test: Mutagenicity in Salmonella typhimurium TA100 assessed as mutagenicity index at 905.66 uM/plate incubated for 90 mins at 37 degC in absence of liver S9 fractions by Ames test relative to control; assay type: toxicity, organism-based; conditions: salmonella enterica subsp. enterica serovar typhimurium, 1.5 h
Salmonella typhimurium [6] = test: Mutagenicity in Salmonella typhimurium TA100 assessed as mutagenicity index at 616.38 uM/plate incubated for 90 mins at 37 degC in presence of liver S9 fractions by Ames test relative to control; assay type: toxicity, organism-based; conditions: salmonella enterica subsp. enterica serovar typhimurium, s9, 1.5 h
Salmonella typhimurium [7] = test: Mutagenicity in Salmonella typhimurium TA100 assessed as mutagenicity index at 1454.55 uM/plate incubated for 90 mins at 37 degC in presence of liver S9 fractions by Ames test relative to control; assay type: toxicity, organism-based; conditions: salmonella enterica subsp. enterica serovar typhimurium, s9, 1.5 h
Salmonella typhimurium [8] = test: Mutagenicity in Salmonella typhimurium TA97a assessed as mutagenicity index at 616.38 uM/plate incubated for 90 mins at 37 degC in presence of liver S9 fractions by Ames test relative to control; assay type: toxicity, organism-based; conditions: salmonella enterica subsp. enterica serovar typhimurium, s9, 1.5 h
Salmonella typhimurium [9] = test: Mutagenicity in Salmonella typhimurium TA97a assessed as mutagenicity index at 905.66 uM/plate incubated for 90 mins at 37 degC in presence of liver S9 fractions by Ames test relative to control; assay type: toxicity, organism-based; conditions: salmonella enterica subsp. enterica serovar typhimurium, s9, 1.5 h
Salmonella typhimurium [10] = test: Mutagenicity in Salmonella typhimurium TA97a assessed as mutagenicity index at 1454.55 uM/plate incubated for 90 mins at 37 degC in presence of liver S9 fractions by Ames test relative to control; assay type: toxicity, organism-based; conditions: salmonella enterica subsp. enterica serovar typhimurium, s9, 1.5 h
Salmonella typhimurium [11] = test: Mutagenicity in Salmonella typhimurium TA102 assessed as mutagenicity index at 616.38 uM/plate incubated for 90 mins at 37 degC in absence of liver S9 fractions by Ames test relative to control; assay type: toxicity, organism-based; conditions: salmonella enterica subsp. enterica serovar typhimurium, 1.5 h
Salmonella typhimurium [12] = test: Mutagenicity in Salmonella typhimurium TA102 assessed as mutagenicity index at 905.66 uM/plate incubated for 90 mins at 37 degC in absence of liver S9 fractions by Ames test relative to control; assay type: toxicity, organism-based; conditions: salmonella enterica subsp. enterica serovar typhimurium, 1.5 h
Salmonella typhimurium [13] = test: Mutagenicity in Salmonella typhimurium TA102 assessed as mutagenicity index at 1185.19 uM/plate incubated for 90 mins at 37 degC in absence of liver S9 fractions by Ames test relative to control; assay type: toxicity, organism-based; conditions: salmonella enterica subsp. enterica serovar typhimurium, 1.5 h
Salmonella typhimurium [14] = test: Mutagenicity in Salmonella typhimurium TA102 assessed as mutagenicity index at 905.66 uM/plate incubated for 90 mins at 37 degC in presence of liver S9 fractions by Ames test relative to control; assay type: toxicity, organism-based; conditions: salmonella enterica subsp. enterica serovar typhimurium, s9, 1.5 h
Salmonella typhimurium [15] = test: Mutagenicity in Salmonella typhimurium TA102 assessed as mutagenicity index at 1185.19 uM/plate incubated for 90 mins at 37 degC in presence of liver S9 fractions by Ames test relative to control; assay type: toxicity, organism-based; conditions: salmonella enterica subsp. enterica serovar typhimurium, s9, 1.5 h
[16] = Mutagenicity in CHOK1 cells assessed as induction of chromosomal DNA mutation by measuring nuclear division index level at 14.51 to 58.04 incubated for 3 hrs by fluorescence microscopy; assay type: toxicity, cell-based, Cricetulus griseus; conditions: chinese hamster, cho-k1, 3 h
[17] = Mutagenicity in CHOK1 cells assessed as induction of chromosomal DNA mutation by measuring micronuclei level at 6.41 to 25.63 incubated for 3 hrs by cytokinesis-block micronucleus assay; assay type: toxicity, cell-based, Cricetulus griseus; conditions: chinese hamster, cho-k1, 3 h
Salmonella typhimurium [18] = test: Mutagenicity in Salmonella typhimurium TA98 assessed as mutagenicity index at 296.15 uM/plate incubated for 90 mins at 37 degC in presence of liver S9 fractions by Ames test relative to untreated control; assay type: toxicity, organism-based; conditions: salmonella enterica subsp. enterica serovar typhimurium, s9, 1.5 h
Salmonella typhimurium [19] = test: Mutagenicity in Salmonella typhimurium TA100 assessed as mutagenicity index at 150.98 uM/plate incubated for 90 mins at 37 degC in absence of liver S9 fractions by Ames test relative to untreated control; assay type: toxicity, organism-based; conditions: salmonella enterica subsp. enterica serovar typhimurium, 1.5 h
Salmonella typhimurium [20] = test: Mutagenicity in Salmonella typhimurium TA100 assessed as mutagenicity index at 296.15 uM/plate incubated for 90 mins at 37 degC in absence of liver S9 fractions by Ames test relative to untreated control; assay type: toxicity, organism-based; conditions: salmonella enterica subsp. enterica serovar typhimurium, 1.5 h
Salmonella typhimurium [21] = test: Mutagenicity in Salmonella typhimurium TA100 assessed as mutagenicity index at 435.85 uM/plate incubated for 90 mins at 37 degC in absence of liver S9 fractions by Ames test relative to untreated control; assay type: toxicity, organism-based; conditions: salmonella enterica subsp. enterica serovar typhimurium, 1.5 h
Salmonella typhimurium [22] = test: Mutagenicity in Salmonella typhimurium TA100 assessed as mutagenicity index at 570.37 uM/plate incubated for 90 mins at 37 degC in absence of liver S9 fractions by Ames test relative to untreated control; assay type: toxicity, organism-based; conditions: salmonella enterica subsp. enterica serovar typhimurium, 1.5 h
Salmonella typhimurium [23] = test: Mutagenicity in Salmonella typhimurium TA100 assessed as mutagenicity index at 435.85 uM/plate incubated for 90 mins at 37 degC in presence of liver S9 fractions by Ames test relative to untreated control; assay type: toxicity, organism-based; conditions: salmonella enterica subsp. enterica serovar typhimurium, s9, 1.5 h
Salmonella typhimurium [24] = test: Mutagenicity in Salmonella typhimurium TA97a assessed as mutagenicity index at 435.85 uM/plate incubated for 90 mins at 37 degC in absence of liver S9 fractions by Ames test relative to untreated control; assay type: toxicity, organism-based; conditions: salmonella enterica subsp. enterica serovar typhimurium, 1.5 h
Salmonella typhimurium [25] = test: Mutagenicity in Salmonella typhimurium TA97a assessed as mutagenicity index at 570.37 uM/plate incubated for 90 mins at 37 degC in absence of liver S9 fractions by Ames test relative to untreated control; assay type: toxicity, organism-based; conditions: salmonella enterica subsp. enterica serovar typhimurium, 1.5 h
Salmonella typhimurium [26] = test: Mutagenicity in Salmonella typhimurium TA97a assessed as mutagenicity index at 570.37 uM/plate incubated for 90 mins at 37 degC in presence of liver S9 fractions by Ames test relative to untreated control; assay type: toxicity, organism-based; conditions: salmonella enterica subsp. enterica serovar typhimurium, s9, 1.5 h
Salmonella typhimurium [27] = test: Mutagenicity in Salmonella typhimurium TA102 assessed as mutagenicity index at 296.15 uM/plate incubated for 90 mins at 37 degC in absence of liver S9 fractions by Ames test relative to untreated control; assay type: toxicity, organism-based; conditions: salmonella enterica subsp. enterica serovar typhimurium, 1.5 h
Salmonella typhimurium [28] = test: Mutagenicity in Salmonella typhimurium TA102 assessed as mutagenicity index at 435.85 uM/plate incubated for 90 mins at 37 degC in absence of liver S9 fractions by Ames test relative to untreated control; assay type: toxicity, organism-based; conditions: salmonella enterica subsp. enterica serovar typhimurium, 1.5 h
Salmonella typhimurium [29] = test: Mutagenicity in Salmonella typhimurium TA102 assessed as mutagenicity index at 570.37 uM/plate incubated for 90 mins at 37 degC in absence of liver S9 fractions by Ames test relative to untreated control; assay type: toxicity, organism-based; conditions: salmonella enterica subsp. enterica serovar typhimurium, 1.5 h
Salmonella typhimurium [30] = test: Mutagenicity in Salmonella typhimurium TA102 assessed as mutagenicity index at 700.00 uM/plate incubated for 90 mins at 37 degC in absence of liver S9 fractions by Ames test relative to untreated control; assay type: toxicity, organism-based; conditions: salmonella enterica subsp. enterica serovar typhimurium, 1.5 h
Salmonella typhimurium [31] = test: Mutagenicity in Salmonella typhimurium TA102 assessed as mutagenicity index at 570.37 uM/plate incubated for 90 mins at 37 degC in presence of liver S9 fractions by Ames test relative to untreated control; assay type: toxicity, organism-based; conditions: salmonella enterica subsp. enterica serovar typhimurium, s9, 1.5 h

Work on `CCOC(=O)c1cn(CCCCCCCCCOS(C)(=O)=O)nn1` yielded an Activity_index (Salmonella typhimurium [1]) of 1.2, an Activity_index (Salmonella typhimurium [2]) of 1.5 and an Activity_index (Salmonella typhimurium [3]) of 0.8. It also gave an Activity_index (Salmonella typhimurium [4]) of 0.8, an Activity_index (Salmonella typhimurium [5]) of 1.2 and an Activity_index (Salmonella typhimurium [6]) of 1. It also gave an Activity_index (Salmonella typhimurium [7]) of 0.9, an Activity_index (Salmonella typhimurium [8]) of 0.9 and an Activity_index (Salmonella typhimurium [9]) of 0.9. It also gave an Activity_index (Salmonella typhimurium [10]) of 0.8, an Activity_index (Salmonella typhimurium [11]) of 1.1 and an Activity_index (Salmonella typhimurium [12]) of 0.9. For the same molecule, the Activity_index (Salmonella typhimurium [13]) was 1.2, the Activity_index (Salmonella typhimurium [14]) was 1.3 and the Activity_index (Salmonella typhimurium [15]) was 1.4. The Activity [16] was “Non-toxic”.

In the case of `CS(=O)(=O)OCCCCCCCCCCCCn1cc(CCCO)nn1`, the Activity [17] is reported as “Non-toxic”, the Activity_index (Salmonella typhimurium [18]) is reported as 1.1 and the Activity_index (Salmonella typhimurium [19]) is reported as 1.1. It also gave an Activity_index (Salmonella typhimurium [20]) of 1.3, an Activity_index (Salmonella typhimurium [21]) of 1.2 and an Activity_index (Salmonella typhimurium [22]) of 1.3. The Activity_index (Salmonella typhimurium [23]) was 0.7, the Activity_index (Salmonella typhimurium [24]) was 1.2 and the Activity_index (Salmonella typhimurium [25]) was 0.9. The Activity_index (Salmonella typhimurium [26]) was 1, the Activity_index (Salmonella typhimurium [27]) was 0.9 and the Activity_index (Salmonella typhimurium [28]) was 0.9. The Activity_index (Salmonella typhimurium [29]) was 1, the Activity_index (Salmonella typhimurium [30]) was 1 and the Activity_index (Salmonella typhimurium [31]) was 1.4.
